Laboratory results: BindingDB's records for doi:10.7270/Q2M9073J (Burnham Center For Chemical Genomics, 2010)

Target: T1, Tyrosine-protein phosphatase non-receptor type 22 (Homo sapiens, UniProt Q9Y2R2)
T1 sequence (Q9Y2R2 whole entry): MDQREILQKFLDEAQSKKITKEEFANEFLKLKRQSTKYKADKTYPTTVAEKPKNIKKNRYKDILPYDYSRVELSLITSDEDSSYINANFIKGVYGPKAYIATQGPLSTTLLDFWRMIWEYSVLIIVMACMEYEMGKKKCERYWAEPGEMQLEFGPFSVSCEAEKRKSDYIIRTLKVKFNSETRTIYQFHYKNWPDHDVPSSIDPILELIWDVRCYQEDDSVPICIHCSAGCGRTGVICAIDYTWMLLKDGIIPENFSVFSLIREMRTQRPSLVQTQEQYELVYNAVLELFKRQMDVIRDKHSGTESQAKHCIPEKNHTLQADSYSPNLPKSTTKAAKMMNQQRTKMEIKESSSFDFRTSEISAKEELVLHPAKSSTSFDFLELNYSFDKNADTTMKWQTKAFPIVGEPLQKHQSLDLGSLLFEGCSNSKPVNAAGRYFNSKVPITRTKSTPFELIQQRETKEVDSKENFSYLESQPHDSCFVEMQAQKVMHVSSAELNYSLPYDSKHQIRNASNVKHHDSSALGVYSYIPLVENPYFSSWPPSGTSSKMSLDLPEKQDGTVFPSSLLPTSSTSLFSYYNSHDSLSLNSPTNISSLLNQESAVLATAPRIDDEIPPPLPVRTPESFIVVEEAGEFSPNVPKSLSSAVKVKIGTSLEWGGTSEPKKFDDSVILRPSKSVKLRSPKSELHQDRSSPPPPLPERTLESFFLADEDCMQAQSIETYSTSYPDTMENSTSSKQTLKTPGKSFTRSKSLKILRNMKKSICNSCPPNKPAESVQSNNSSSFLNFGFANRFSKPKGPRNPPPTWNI
Assay: inhibition of lymphoid tyrosine phosphatase LYP – biochemical, pCAP fluorogenic substrate, fluorescence, set 3, SAR follow-up (AID 449727)

CCOc1ccc2nc(NC(=O)CSc3cc(O)c4c(C)c(C)sc4n3)sc2c1 [2-[(2,3-dimethyl-4-oxidanylidene-5H-thieno[2,3-b]pyridin-6-yl)sulfanyl]-N-(6-ethoxy-1,3-benzothiazol-2-yl)ethanamide]
IC50: > 100 µM
